Laboratory results published in US6664036B1, “Homogeneous single-part color developer per color film processing and method of using same” (priority 2002, dated 2003).

Assay: Solubility of Color Developing Agents CD-2 and CD-3 free base with co-solvent
Assay type: physicochemical
Design: unit not given here
Conditions: free base form, same manner as Example 1
Description: The co-solvent shown in TABLE I below were tested for their ability to solubilize KODAK Color Developing Agent CD-4 in free base form, in a solution matrix similar to conventional color developing concentrates. KODAK Color Developing Agent CD-4 was prepared in free base form by neutralizing a saturated solution of KODAK Color Developing Agent CD-4 disulfate salt with a stoichiometric quantity of 45% potassium hydroxide. The resulting mixture was stirred and allowed to separate into two layers, the KODAK Color Developing Agent CD-4 free base oil being in the top layer. The top layer was then drawn off for use in the solubility test.
A solution was prepared containing approximately 90 g/l solution of the various co-solvents using a stock solution containing 233 g/l of potassium carbonate, 84.5 g/l of potassium bicarbonate and 67 g/l of potassium sulfite at pH 10.4. Free acid co-solvents were neutralized with a stoichiometric quantity of 45% potassium hydroxide before the test solution was prepared. KODAK Color Developing Agent CD-4 in free base was then added to each test solution with stirring, and the quantity was monitored by weight until precipitation occurred. Using the final volume of the saturated solution and the amount of color developing agent added, the solubility of the color developing agent was calculated.
The solubility of KODAK Color Developing Agents CD-2 and CD-3 were tested in the same manner described in Example 1 for KODAK Color Developing Agent CD-4.

[1] = co-solvent Diethylene glycol 90 g/l
[2] = co-solvent Sodium Benzoate 85-88 g/l

CCN(CC)c1ccc(N)c(C)c1.Cl [CD-2, 4-(N,N-diethyl)-2-methylaniline hydrochloride]
Color Developing Agent Solubility [1]: <4 | Color Developing Agent Solubility [2]: 12

CCN(CCNS(C)(=O)=O)c1ccc(N)c(C)c1.CCN(CCNS(C)(=O)=O)c1ccc(N)c(C)c1.O=S(=O)(O)O.O=S(=O)(O)O.O=S(=O)(O)O [CD-3, 4-(N-ethyl-N-methanesulfonamidoethyl)-2-methylaniline sesquisulfate]
Color Developing Agent Solubility [1]: <4 | Color Developing Agent Solubility [2]: 66
